The record followed here is PubChem BioAssay (NCI).

Among the test systems are A498 renal; ACHN renal; DU-145 prostate; HCT-15 colon; HOP-62 NSCLC; HT29 colon; MDA-MB-231 breast; OVCAR-4 ovarian; SF-295 CNS; SNB-19 CNS; SNB-75 CNS; TK-10 renal; HL-60(TB) leukemia; NCI-H226 lung; SF-539 CNS; SN12C renal.
Common to all, as to assay: DTP human tumour cell line panel, 48 h

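Cultured in 96-well plates, cells were exposed to test compound for 48 hours across five concentrations. TGI: total growth inhibition.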

As a reminder, the TGI is the concentration giving total growth inhibition. Higher therefore signals less potent growth arrest. As to `C/C=C\C(CC(=O)NCCC1CN(S(=O)(=O)c2ccc(C)cc2)c2ccccc21)CC(=O)OC` (stereo not given), the TGI with A498 renal, in the assay on ACHN renal, in the assay with DU-145 prostate, with HCT-15 colon, in the assay on HOP-62 NSCLC and in the assay with HT29 colon was more than 100 µM each time. The TGI with MDA-MB-231 breast, in the assay on OVCAR-4 ovarian, in the assay on SF-295 CNS, in the assay with SNB-19 CNS, in the assay on SNB-75 CNS and with TK-10 renal was more than 100 µM throughout.
As to `C=CCC(N(C)C(=O)[C@H](Cc1ccccc1)NC(=O)OCc1ccccc1)P(=O)(Oc1ccccc1)Oc1ccccc1` (stereo not given in full), the TGI with ACHN renal, with HL-60(TB) leukemia, in the assay on HOP-62 NSCLC, in the assay with HT29 colon, in the assay with NCI-H226 lung and with SF-295 CNS was more than 100 µM throughout. In addition, the TGI in the assay on SF-539 CNS, in the assay on SN12C renal, in the assay on SNB-19 CNS, with SNB-75 CNS and in the assay with TK-10 renal was more than 100 µM throughout.
For `CC(C)CC(NC(=O)OC(C)(C)C)C(=O)Nc1ccc(Nc2nc(F)nc(-c3c4ccccc4c4n3CCS4)n2)cc1` (stereo not given), the TGI was 45.8 µM in the assay with A498 renal; 39.2 µM in the assay on ACHN renal; 30.3 µM in the assay on HCT-15 colon; 46.5 µM in the assay with HL-60(TB) leukemia; 37.2 µM in the assay on HOP-62 NSCLC; 34.8 µM in the assay on HT29 colon. Further, the TGI came out at 35.9 µM in the assay with SF-295 CNS; 37.7 µM with SF-539 CNS; 43.5 µM with SN12C renal; 36.9 µM with SNB-19 CNS; 38.2 µM in the assay on SNB-75 CNS; 57.5 µM in the assay with TK-10 renal.
As for `O=c1ccn([C@@H]2C[C@@H]2CO)c(=O)[nH]1`, the TGI in the assay on A498 renal, in the assay on ACHN renal, in the assay on DU-145 prostate, in the assay on HCT-15 colon, in the assay with HL-60(TB) leukemia and in the assay on HOP-62 NSCLC was more than 100 µM throughout. Besides, the TGI in the assay on HT29 colon, with NCI-H226 lung, with OVCAR-4 ovarian, in the assay on SF-539 CNS, in the assay with SN12C renal and with SNB-19 CNS was more than 100 µM each time. Besides, the TGI in the assay on SNB-75 CNS and in the assay with TK-10 renal was more than 100 µM throughout.
As to `CCOC(=O)c1c(N)sc2c1C(C)(C(=O)OCC)CC2` (stereo not given), the TGI with A498 renal was 83 µM; with ACHN renal, more than 100 µM; in the assay with HCT-15 colon it was more than 100 µM; with HL-60(TB) leukemia, more than 100 µM; with HOP-62 NSCLC it was more than 100 µM; in the assay on HT29 colon, more than 100 µM. Besides, the TGI in the assay with MDA-MB-231 breast, in the assay on NCI-H226 lung, with SN12C renal, in the assay with SNB-19 CNS, in the assay on SNB-75 CNS and with TK-10 renal was more than 100 µM in each case.
Consider `CC[C@@H]1CC[C@@H]2[C@H](CC[C@]3(C)[C@@H](OS(=O)(=O)c4ccc(C)cc4)CC[C@@H]23)[C@H]1COS(=O)(=O)c1ccc(C)cc1`, for which the TGI in the assay on A498 renal, with ACHN renal, with DU-145 prostate, in the assay with HCT-15 colon, in the assay with HL-60(TB) leukemia and in the assay on HT29 colon was more than 100 µM each time. The TGI in the assay with NCI-H226 lung, with OVCAR-4 ovarian, with SF-295 CNS, in the assay with SF-539 CNS, with SN12C renal and in the assay on SNB-19 CNS was more than 100 µM in each case. For the same molecule, the TGI in the assay on TK-10 renal was more than 100 µM.
Turning to `O=C1c2ccccc2OP(=O)(OCC(F)(F)F)OC1(C(F)(F)F)C(F)(F)F` (stereo not given), the TGI in the assay on A498 renal, in the assay on ACHN renal, in the assay with HCT-15 colon, with HL-60(TB) leukemia, in the assay on HOP-62 NSCLC and in the assay on HT29 colon was more than 100 µM throughout. In addition, the TGI in the assay with NCI-H226 lung, with OVCAR-4 ovarian, in the assay on SF-295 CNS, in the assay on SF-539 CNS, with SN12C renal and in the assay on SNB-19 CNS was more than 100 µM in each case. Further, the TGI in the assay with SNB-75 CNS and with TK-10 renal was more than 100 µM each time.
As to `Cc1ccc([N+](=O)[O-])cc1NC(=O)/C(=N/NC(=S)NN)C1SC(=S)NC1=O` (stereo not given), the TGI in the assay on A498 renal, in the assay on ACHN renal, with HCT-15 colon, with HL-60(TB) leukemia, in the assay with HOP-62 NSCLC and in the assay on HT29 colon was more than 100 µM throughout. The TGI in the assay with NCI-H226 lung, with OVCAR-4 ovarian, with SF-295 CNS, in the assay with SF-539 CNS, in the assay on SN12C renal and with SNB-19 CNS was more than 100 µM throughout. Further, the TGI in the assay on SNB-75 CNS and in the assay with TK-10 renal was more than 100 µM in each case.
For the molecule `CC(=O)O[C@H]1C(=O)[C@@]2(C)[C@H]([C@H](OC(=O)c3ccccc3)[C@]3(O)C[C@H](OC(=O)[C@H](O)[C@@H](NC(=O)c4cccc(N=[N+]=[N-])c4)c4ccccc4)C(C)=C1C3(C)C)[C@]1(OC(C)=O)CO[C@@H]1C[C@@H]2O`, the TGI in the assay on A498 renal was 7.62 µM; in the assay with ACHN renal it was more than 25 µM; in the assay on HCT-15 colon it was more than 25 µM; in the assay with HL-60(TB) leukemia it was less than 0.0025 µM; in the assay with HT29 colon, more than 6.26 µM; with MDA-MB-231 breast it was 0.422 µM. Besides, the TGI is more than 25 µM in the assay with NCI-H226 lung; more than 25 µM in the assay on OVCAR-4 ovarian; 0.19 µM in the assay on SF-295 CNS; 0.0133 µM with SF-539 CNS; more than 25 µM with SN12C renal; more than 25 µM with SNB-19 CNS. In addition, the TGI in the assay with SNB-75 CNS is 0.785 µM; in the assay with TK-10 renal, more than 20.1 µM.
As for `COC(=O)CC1NC(=O)[C@@H]1C(C)O` (stereo not given in full), the TGI in the assay with A498 renal, with ACHN renal, with HCT-15 colon, in the assay on HL-60(TB) leukemia, in the assay with HOP-62 NSCLC and with HT29 colon was more than 100 µM throughout. Besides, the TGI in the assay on NCI-H226 lung, with OVCAR-4 ovarian, with SF-295 CNS, in the assay on SF-539 CNS, with SN12C renal and in the assay with SNB-19 CNS was more than 100 µM each time. Also, the total growth inhibition concentration (TGI) in the assay with SNB-75 CNS and in the assay on TK-10 renal was more than 100 µM in each case.
